By Ki is commonly meant the equilibrium dissociation constant of an inhibitor or competing ligand from its target.

Results on three compounds are retold here after publication PMC12566624, “A Second Opportunity for the Peptide-Based Analogues with γ-Lactam at the P1 Position: Human Cathepsin S Inhibition” (Pharmaceuticals, 2025).

This test deals with T1, human cathepsin S (hCatS) (Homo sapiens, UniProt P25774).
T1 construct: gene CTSS
T1 sequence (P25774 115-331): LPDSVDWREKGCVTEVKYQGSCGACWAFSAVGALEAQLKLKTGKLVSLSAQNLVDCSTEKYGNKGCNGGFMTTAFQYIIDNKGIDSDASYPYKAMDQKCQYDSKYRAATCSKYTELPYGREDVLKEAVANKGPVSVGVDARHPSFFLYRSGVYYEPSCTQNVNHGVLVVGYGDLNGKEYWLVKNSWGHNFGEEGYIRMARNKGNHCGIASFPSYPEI
As to the kind of experiment: fluorogenic enzyme inhibition assay, Cbz-Val-Val-Arg-AMC substrate; Ki from IC50. Format: biochemical.
Compound `CCCC[C@H](NC(=O)OCc1ccccc1)C(=O)N[C@H](/C=C/C(C)=O)C[C@@H]1CCNC1=O` [SPR38] registered a Ki of 58.8 ± 3.6 nM.
With `CC(=O)/C=C/[C@H](C[C@@H]1CCNC1=O)NC(=O)[C@H](CC1CC1)NC(=O)OCc1ccccc1` [SPR39] the figure was 45.1 ± 3.8 nM.
With `CC(=O)/C=C/[C@H](C[C@@H]1CCNC1=O)NC(=O)[C@H](CC1CCCCC1)NC(=O)OCc1ccccc1` [SPR41] the figure was 10.7 ± 1.1 nM.
